Here are results for five compounds from PMC4755721 (Chemical research in toxicology, 2015).

The target in data set [1] is T1, P450 2A6 (Homo sapiens, UniProt P11509).
T1 sequence (P11509 1-494): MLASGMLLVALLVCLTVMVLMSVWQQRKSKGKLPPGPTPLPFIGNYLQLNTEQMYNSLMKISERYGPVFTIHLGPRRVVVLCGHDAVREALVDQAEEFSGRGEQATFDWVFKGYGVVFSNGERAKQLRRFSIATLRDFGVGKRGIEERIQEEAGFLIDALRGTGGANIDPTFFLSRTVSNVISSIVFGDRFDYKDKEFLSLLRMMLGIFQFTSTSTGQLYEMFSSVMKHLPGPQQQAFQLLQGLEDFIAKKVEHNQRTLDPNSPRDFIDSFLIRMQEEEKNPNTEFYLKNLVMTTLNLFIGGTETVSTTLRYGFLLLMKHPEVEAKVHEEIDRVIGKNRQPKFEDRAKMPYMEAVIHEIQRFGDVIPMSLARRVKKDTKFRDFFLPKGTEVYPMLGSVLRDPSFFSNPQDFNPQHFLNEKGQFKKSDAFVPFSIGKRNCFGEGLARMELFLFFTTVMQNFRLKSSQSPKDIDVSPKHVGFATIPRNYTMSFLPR
Kind of data set: Oxidation by P450 2A6. The settings on record: 50 µM substrate, reconstituted system, LC-MS. The format is in vitro ADME.

Data set [2] concerns the target T2, P450 2A13 (Homo sapiens, UniProt Q16696).
T2 sequence (Q16696 1-494): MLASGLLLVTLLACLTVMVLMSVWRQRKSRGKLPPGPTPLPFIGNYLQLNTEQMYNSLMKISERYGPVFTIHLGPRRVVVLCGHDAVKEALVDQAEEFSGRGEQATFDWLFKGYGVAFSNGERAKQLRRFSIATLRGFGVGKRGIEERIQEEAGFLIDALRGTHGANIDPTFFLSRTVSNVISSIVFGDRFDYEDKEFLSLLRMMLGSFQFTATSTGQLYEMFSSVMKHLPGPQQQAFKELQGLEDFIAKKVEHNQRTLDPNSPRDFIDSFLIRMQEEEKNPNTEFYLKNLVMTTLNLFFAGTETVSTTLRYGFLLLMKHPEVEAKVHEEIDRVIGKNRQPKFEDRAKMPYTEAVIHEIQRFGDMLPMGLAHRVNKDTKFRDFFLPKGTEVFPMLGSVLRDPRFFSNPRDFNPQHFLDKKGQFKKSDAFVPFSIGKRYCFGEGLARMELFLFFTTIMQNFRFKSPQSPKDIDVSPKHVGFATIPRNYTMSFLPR
Description: Oxidation by P450 2A13. Format: in vitro ADME. The settings on record: 50 µM substrate, reconstituted system, LC-MS.

The target in data set [3] is T1, P450 2A6. Description: Spectral binding titration with P450 2A6.
Data set [4] concerns the target T2, P450 2A13. Description: Spectral binding titration with P450 2A13.
Data set [5] concerns the target P450 3A4 (Homo sapiens, UniProt P08684). Description: Spectral binding titration with P450 3A4.
For data set [6], the target named is T3, P450 1B1 (Homo sapiens, UniProt Q16678).
T3 sequence (Q16678 1-543): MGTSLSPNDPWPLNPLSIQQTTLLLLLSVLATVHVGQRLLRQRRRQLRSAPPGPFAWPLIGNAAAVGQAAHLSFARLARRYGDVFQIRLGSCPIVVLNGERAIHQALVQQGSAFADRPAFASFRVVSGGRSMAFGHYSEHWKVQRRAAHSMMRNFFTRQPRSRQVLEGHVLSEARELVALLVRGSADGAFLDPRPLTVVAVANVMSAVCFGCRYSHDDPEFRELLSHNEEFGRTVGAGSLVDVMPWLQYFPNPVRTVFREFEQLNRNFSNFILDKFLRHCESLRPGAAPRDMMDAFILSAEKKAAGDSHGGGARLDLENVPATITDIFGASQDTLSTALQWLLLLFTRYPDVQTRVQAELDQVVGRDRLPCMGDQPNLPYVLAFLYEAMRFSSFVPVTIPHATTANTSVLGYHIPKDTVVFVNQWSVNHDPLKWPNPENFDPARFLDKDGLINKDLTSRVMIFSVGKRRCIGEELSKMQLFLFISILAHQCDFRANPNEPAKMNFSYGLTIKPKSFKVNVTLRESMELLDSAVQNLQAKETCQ
Description: Spectral binding titration with P450 1B1.

Data set [7] deals with T4, P450 1A2 (Homo sapiens, UniProt P05177).
T4 sequence (P05177 1-516): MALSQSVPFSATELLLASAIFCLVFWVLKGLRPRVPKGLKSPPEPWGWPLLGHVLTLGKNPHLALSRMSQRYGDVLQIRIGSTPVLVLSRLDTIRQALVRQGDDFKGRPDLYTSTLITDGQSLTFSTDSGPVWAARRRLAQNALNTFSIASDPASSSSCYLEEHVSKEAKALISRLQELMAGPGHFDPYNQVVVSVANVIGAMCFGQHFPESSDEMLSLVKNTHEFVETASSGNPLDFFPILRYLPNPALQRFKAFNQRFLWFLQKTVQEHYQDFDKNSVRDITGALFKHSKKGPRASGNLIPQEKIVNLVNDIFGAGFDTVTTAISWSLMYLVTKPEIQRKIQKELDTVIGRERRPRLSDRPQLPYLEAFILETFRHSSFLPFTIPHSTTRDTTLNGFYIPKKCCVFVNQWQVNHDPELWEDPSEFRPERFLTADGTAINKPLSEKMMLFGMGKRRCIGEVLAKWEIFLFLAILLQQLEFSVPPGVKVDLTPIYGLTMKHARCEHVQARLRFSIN
Description: Spectral binding titration with P450 1A2.

Data set [8] deals with P450 2C9 (Homo sapiens, UniProt P11712). Description: Spectral binding titration with P450 2C9.
Sequence of P450 2C9 (P11712 whole entry): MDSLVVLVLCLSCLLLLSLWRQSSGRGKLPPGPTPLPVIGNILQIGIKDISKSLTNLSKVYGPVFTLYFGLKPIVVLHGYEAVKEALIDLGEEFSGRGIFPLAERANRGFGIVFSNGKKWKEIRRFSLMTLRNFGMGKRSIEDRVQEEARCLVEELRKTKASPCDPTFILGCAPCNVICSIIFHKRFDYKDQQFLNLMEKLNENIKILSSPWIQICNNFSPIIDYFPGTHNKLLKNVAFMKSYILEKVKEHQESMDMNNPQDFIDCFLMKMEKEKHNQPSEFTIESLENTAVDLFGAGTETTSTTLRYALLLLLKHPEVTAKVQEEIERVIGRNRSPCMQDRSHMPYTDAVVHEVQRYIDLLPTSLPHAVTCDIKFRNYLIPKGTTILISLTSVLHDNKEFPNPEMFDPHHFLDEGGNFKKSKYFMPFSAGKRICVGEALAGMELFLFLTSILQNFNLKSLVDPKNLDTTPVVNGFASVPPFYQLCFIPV
The test system of data set [9] is S. typhimurium NM2009. Kind of data set: Genotoxicity assay, induction of umu gene expression. The conditions noted are these: for genotoxic activity (induction of umu gene expression): 0-160 µM, without P450; for cytotoxic activity: at concentrations of 80 and 160 µM, tester strain NM2009. The format is cell-based, Salmonella typhimurium.
The target in data set [10] is T1, P450 2A6. The settings on record: cited from earlier work.
For data set [11], the target named is T2, P450 2A13. The conditions noted are these: cited from earlier work.
Data set [12] relates to P450 2A6. The settings on record: cited from earlier work.
Data set [13] concerns P450 2A13. The settings on record: cited from earlier work.
Data set [14] concerns Salmonella typhimurium TA1537 and TA1538. The settings on record: cited from earlier work.
In data set [15] the test system is HepG2. The conditions noted are these: cited from earlier work.
The test system of data set [16] is S. typhimurium TA120. The conditions noted are these: photomutagenesis assay; cited from earlier work.
Data set [17] has as its system S. typhimurium TM677. The conditions noted are these: cited from earlier work.
The conditions of data set [18]: non-classifiable as to carcinogenicity to humans; cited from earlier work.

“Also recorded” adds a separate entry of the source. Like-named read-outs stand apart in the source and are kept apart here.

A word on the Kd: it is the constant that tells how readily two partners part at equilibrium.

Sequence of P450 3A4 (P08684 whole entry): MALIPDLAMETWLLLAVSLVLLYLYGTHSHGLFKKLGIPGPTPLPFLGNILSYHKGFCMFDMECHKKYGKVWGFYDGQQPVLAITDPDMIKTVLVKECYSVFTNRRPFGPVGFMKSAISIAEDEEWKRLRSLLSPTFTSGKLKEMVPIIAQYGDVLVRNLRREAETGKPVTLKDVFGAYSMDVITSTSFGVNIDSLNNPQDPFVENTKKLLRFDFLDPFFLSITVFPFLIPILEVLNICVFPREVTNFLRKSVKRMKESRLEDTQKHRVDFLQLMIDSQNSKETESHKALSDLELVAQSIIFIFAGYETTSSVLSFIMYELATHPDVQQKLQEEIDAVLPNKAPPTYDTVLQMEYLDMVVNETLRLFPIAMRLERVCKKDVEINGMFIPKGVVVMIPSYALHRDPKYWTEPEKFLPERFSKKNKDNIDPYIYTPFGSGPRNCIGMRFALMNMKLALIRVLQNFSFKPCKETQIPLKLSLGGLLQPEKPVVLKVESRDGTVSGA

In the case of `c1cc2c3c(cccc3c1)C1OC21` (centres unmarked) [1,2-epoxyacenaphthene, 1,2-Epoxyacenaphthene], the “further oxidation by P450 2A6” value in data set [1] is “further oxidized”. Moreover, the “further oxidation by P450 2A13” value in [2] was “to a small extent”. Moreover, the Kd in data set [3] (Ks (spectral dissociation constant), P450 2A6, 1 µM P450, pH 7.4, ± SE) was 1.78 ± 0.25 µM; in data set [4], 0.16 ± 0.03 µM; in [5] it was 6.2 ± 0.87 µM. The binding spectra induced entry in [3] (P450 2A6), in data set [4] (P450 2A13) and in data set [5] (P450 3A4) was “Type I” each time. Further, the “ΔAmax / Ks” value in data set [3] (P450 2A6) is given as 0.035; in data set [4] (P450 2A13) it was 0.46; in data set [5] (P450 3A4), 0.007. The ΔAmax in data set [3] (P450 2A6, ± SE) is 0.062 ± 0.002; in [4] (P450 2A13, ± SE), 0.073 ± 0.002; in [5] (P450 3A4, ± SE) it was 0.041 ± 0.002. The “Ks with P450 2A13 lower than with P450 2A6” value in data set [4] (P450 2A13 vs P450 2A6) was ~ 10 fold. In addition, the spectral changes entry in data set [6], in data set [7] and in data set [8] was “did not show any spectral changes” throughout. Also, in [9], the “genotoxic activity (induction of umu gene expression)” value (shortened to “genotoxic activity”) was “Neither these four PAHs induced umu gene expression; also recorded: none of these four chemicals showed any genotoxic activity”. For the same compound, the cytotoxic activity in data set [9] is recorded as 10-20%. Moreover, the “genotoxicity after metabolic activation with P450 2A6 and 2A13” value (from here on “genotoxicity after metabolic activation”) in data set [9] was “negative results”.
Turning to `Oc1ccc2c(cc3ccc4cccc5ccc2c3c45)c1O` [benzo[a]pyrene-7,8-diol, reference compound], in data set [9] (with P450 1B1, results not shown), the “umu gene expression after metabolic activation (positive control)” value is “induced umu gene expression”.
On to `C1=Cc2cccc3cccc1c23` [acenaphthylene], for which the ΔAmax came out at 0.076±0.002 in data set [3], 0.050±0.004 in data set [4] and 0.030±0.002 in data set [5]. In addition, the “ΔAmax / Ks” value in [3] (P450 2A6) is on record as 0.017; in data set [4] (P450 2A13), 0.081; in [5] (P450 3A4), 0.002. Also, in [5], binding was put at a Kd of 13 ± 2.7 µM. In addition, the “genotoxic activity” value in data set [9] was “Neither these four PAHs induced umu gene expression; also recorded: none of these four chemicals showed any genotoxic activity”. The cytotoxic activity in data set [9] was 10-20%. In addition, the “genotoxicity after metabolic activation” value in data set [9] was “negative results”. Also, the binding spectra induced entry in data set [10] and in data set [11] was “Type I” each time. The “inhibition of coumarin 7-hydroxylation activity” value in [12] and in [13] was “inhibit” throughout. Further, the mutagenicity entry in data set [14] is given as “non-mutagenic”; in [17], “mutagenic”. Also, the cytotoxicity entry in data set [15] is listed as “non-cytotoxic”. For the same compound, the photomutagenicity result in data set [16] was “weakly mutagenic”.
Consider `c1cc2c3c(cccc3c1)CC2` [acenaphthene], for which the “ΔAmax / Ks” value in [3] (P450 2A6) was 0.055; in data set [4] (P450 2A13) it was 0.15; in [5] (P450 3A4), 0.002. In addition, the ΔAmax in data set [3] (P450 2A6, ± SE) is listed as 0.066±0.002; in [4] (P450 2A13, ± SE) it was 0.074±0.005; in data set [5] (P450 3A4, ± SE) it was 0.040±0.003. This compound also yielded a Kd in [5] of 19 ± 3.5 µM. Further, the “genotoxic activity” value in data set [9] was “Neither these four PAHs induced umu gene expression”; in [9] (listed as Acenaphthene), “none of these four chemicals showed any genotoxic activity”. The cytotoxic activity in data set [9] is on record as 10-20%. In [9], the “genotoxicity after metabolic activation” value is recorded as “negative results”. For the same compound, the binding spectra induced entry in [10] (P450 2A6) and in [11] (P450 2A13) was “Type I” throughout. Further, the “inhibition of coumarin 7-hydroxylation activity” value in data set [12] (P450 2A6) and in data set [13] (P450 2A13) was “inhibit” each time. In data set [14] (TA1537 and TA1538), the mutagenicity entry is reported as “non-mutagenic”. Besides, the cytotoxicity entry in data set [15] (human liver tumor cell lines and HepG2 in vitro) is recorded as “non-cytotoxic”. Besides, the photomutagenicity result in data set [16] is “weakly mutagenic”. Moreover, the IARC category entry in data set [18] is listed as “Group 3”.
As to `OC1Cc2cccc3cccc1c23` (centres unmarked) [1-acenaphthenol], the values for the binding spectra induced entry in [3] (P450 2A6), in data set [4] (P450 2A13) and in data set [5] (P450 3A4) were “very weak or undetectable”, “Type I” and “very weak or undetectable”, respectively. For the same compound, the Kd in data set [4] was found to be 0.48 ± 0.03 µM; in data set [5] it was 7.8 ± 2.2 µM. Also, the figures for the “ΔAmax / Ks” value in [4] (P450 2A13) and in data set [5] (P450 3A4) were 0.13 and 0.002, respectively. In addition, the ΔAmax in data set [4] (P450 2A13, ± SE) is 0.061±0.001; in data set [5] (P450 3A4, ± SE) it was 0.013 ± 0.001. Moreover, the spectral changes entry in data set [6], in data set [7] and in data set [8] was “did not show any spectral changes” throughout. The “genotoxic activity” value in data set [9] is reported as “Neither these four PAHs induced umu gene expression; also recorded: none of these four chemicals showed any genotoxic activity”. The cytotoxic activity in [9] is on record as 10-20%. The “genotoxicity after metabolic activation” value in data set [9] is given as “negative results”.
